How the values were obtained:
[1] = biological target: 5-hydroxytryptamine receptor 7 (Homo sapiens, UniProt P34969); assay: Radioligand Binding Assay
Experimental: (§1) 1H nuclear magnetic resonance (NMR) and 13C NMR spectra were recorded on a Bruker Avance DPX250 spectrometer (250.131 MHz), in CDCl3 and using tetramethylsilane asinternal standard; multiplicities were determined by the DEPT 135 sequence, and chemical shifts are reported in parts per million (ppm). Coupling constants are reported in units of hertz (Hz) if applicable. Infrared (IR) spectra were recorded on a PerkinElmer Paragon 1000 PC Fourier transform infrared (FTIR) spectrometer using NaCl films or KBr pellets. Mass spectra (MS) were recorded on a PerkinElmerSCIEX AOI 300 spectrometer. Flash chromatography was performed on Merck […] (230-400 mesh) silica gel under nitrogen pressure. Thin layer chromatography (TLC)was carried out on Merck silica gel 60 F254 precoated plates. Visualization was made with ultraviolet light at 254 nm.

[2] = biological target: T1, 5-hydroxytryptamine receptor 1A (Rattus norvegicus, UniProt P19327); assay: Radioligand Binding Assay
T1 sequence (P19327 whole entry): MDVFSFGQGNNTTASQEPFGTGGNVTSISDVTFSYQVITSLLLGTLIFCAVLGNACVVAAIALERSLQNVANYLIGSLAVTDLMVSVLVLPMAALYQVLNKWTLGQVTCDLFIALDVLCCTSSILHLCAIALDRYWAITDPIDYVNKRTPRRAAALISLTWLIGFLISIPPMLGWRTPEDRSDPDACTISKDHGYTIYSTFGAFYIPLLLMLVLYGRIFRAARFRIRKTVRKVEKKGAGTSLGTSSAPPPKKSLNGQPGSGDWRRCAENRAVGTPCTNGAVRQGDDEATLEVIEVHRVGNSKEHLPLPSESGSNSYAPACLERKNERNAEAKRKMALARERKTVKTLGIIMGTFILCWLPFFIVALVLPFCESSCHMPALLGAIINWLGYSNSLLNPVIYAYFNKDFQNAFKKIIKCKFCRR
Experimental: as §1

5-hydroxytryptamine receptor 7, sequence (P34969 whole entry): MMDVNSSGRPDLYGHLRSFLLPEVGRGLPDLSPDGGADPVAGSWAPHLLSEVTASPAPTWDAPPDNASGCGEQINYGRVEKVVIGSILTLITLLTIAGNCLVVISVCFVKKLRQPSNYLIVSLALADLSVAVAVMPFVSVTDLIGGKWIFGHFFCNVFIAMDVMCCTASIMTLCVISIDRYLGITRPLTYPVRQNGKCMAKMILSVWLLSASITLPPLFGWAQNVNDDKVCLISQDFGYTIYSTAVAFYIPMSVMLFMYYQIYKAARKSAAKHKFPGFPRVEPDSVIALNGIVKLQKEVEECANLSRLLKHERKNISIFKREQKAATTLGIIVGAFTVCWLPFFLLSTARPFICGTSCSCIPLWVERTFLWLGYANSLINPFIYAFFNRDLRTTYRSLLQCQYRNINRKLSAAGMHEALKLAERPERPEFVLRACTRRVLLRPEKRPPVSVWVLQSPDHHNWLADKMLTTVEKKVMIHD

Structure (SMILES)	Ki [1]	Ki [2]
O=c1[nH]c2ccccc2n1CCN1CCCN2CCCCC2C1 (stereo unspecified) [1-[2-(Octahydropyrido[1,2-a][1,4]diazepin-2-yl)ethyl]-1,3-dihydrobenzo-imidazol-2-one (8)]	23.6 µM	
c1cc2ccn(CCN3CCCN4CCCCC4C3)c2cn1 (stereo unspecified) [2-[(2-Pyrrolo[2,3-c]pyridin-1-yl)ethyl]decahydropyrido[1,2-a][1,4]diazepine (7)]	> 10 µM	> 10 µM
Brc1ccc2ccn(CCN3CCCN4CCCCC4C3)c2n1 (stereo unspecified) [2-[2-(6-Bromopyrrolo[2,3-b]pyridin-1-yl)ethyl]decahydropyrido[1,2-a][1,4]diazepine (10)]	0.492 µM	14.9 µM
Clc1nccc2ccn(CCN3CCCN4CCCCC4C3)c12 (stereo unspecified) [2-[2-(7-Chloropyrrolo[2,3-c]pyridin-1-yl)ethyl]decahydropyrido[1,2-a][1,4]diazepine (6)]	5.31 µM	16 µM
Clc1ccc2ccn(CCN3CCCN4CCCCC4C3)c2n1 (stereo unspecified) [2-[2-(6-Chloropyrrolo[2,3-b]pyridin-1-yl)ethyl]decahydropyrido[1,2-a][1,4]diazepine (11)]	0.16 µM	15 µM
c1cnc2c(c1)ccn2CCN1CCCN2CCCCC2C1 (stereo unspecified) [2-(2-Pyrrolo[2,3-b]pyridin-1-ylethyl)decahydropyrido[1,2-a][1,4]diazepine (5)]	14 µM	24.5 µM

From BindingDB's records for doi:10.3109/14756360903179393 (University of Orleans, 2010)
